Columns and labels:
[1] = target: T1, Human-derived ACLY protein (Homo sapiens, UniProt P53396); experiment: ACLY citrate cleavage enzyme inhibition, ADP-Glo assay; assay type: biochemical; conditions: 25 nM enzyme, 30 min, 37° C., read-out: IC50 for inhibition of ACLY enzyme activity (mean ± SD)
T1 construct: purchased Beijing Yiqiao Shenzhou Technology Co., Ltd 11769-H07B
T1 sequence (P53396 1-1101): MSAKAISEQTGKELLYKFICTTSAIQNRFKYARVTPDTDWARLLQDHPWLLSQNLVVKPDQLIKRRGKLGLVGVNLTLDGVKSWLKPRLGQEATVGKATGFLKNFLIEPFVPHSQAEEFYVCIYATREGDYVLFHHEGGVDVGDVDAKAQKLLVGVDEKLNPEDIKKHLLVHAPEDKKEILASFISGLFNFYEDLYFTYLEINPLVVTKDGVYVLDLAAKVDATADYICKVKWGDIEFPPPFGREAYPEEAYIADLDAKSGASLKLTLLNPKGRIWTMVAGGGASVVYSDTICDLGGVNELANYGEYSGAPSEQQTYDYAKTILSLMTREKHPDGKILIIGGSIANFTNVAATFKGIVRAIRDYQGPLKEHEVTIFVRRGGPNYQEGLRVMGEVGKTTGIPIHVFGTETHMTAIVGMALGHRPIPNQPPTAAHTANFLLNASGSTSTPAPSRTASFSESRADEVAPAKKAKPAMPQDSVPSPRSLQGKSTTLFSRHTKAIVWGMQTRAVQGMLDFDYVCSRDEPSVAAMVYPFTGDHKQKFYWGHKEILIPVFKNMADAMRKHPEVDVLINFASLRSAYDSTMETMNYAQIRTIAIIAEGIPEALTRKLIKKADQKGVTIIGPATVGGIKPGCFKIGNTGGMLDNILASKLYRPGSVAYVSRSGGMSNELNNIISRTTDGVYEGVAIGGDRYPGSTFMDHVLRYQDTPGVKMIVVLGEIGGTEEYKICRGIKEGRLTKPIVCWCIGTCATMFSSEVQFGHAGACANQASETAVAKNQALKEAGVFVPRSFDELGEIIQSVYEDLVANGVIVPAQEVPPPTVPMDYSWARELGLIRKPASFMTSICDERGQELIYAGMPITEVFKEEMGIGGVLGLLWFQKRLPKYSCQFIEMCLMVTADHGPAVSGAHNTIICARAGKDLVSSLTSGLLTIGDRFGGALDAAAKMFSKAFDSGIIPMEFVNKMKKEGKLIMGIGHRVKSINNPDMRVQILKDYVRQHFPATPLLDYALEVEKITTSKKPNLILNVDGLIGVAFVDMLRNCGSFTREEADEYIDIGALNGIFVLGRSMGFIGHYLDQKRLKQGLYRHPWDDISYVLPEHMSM
Description: The ACLY-catalyzed citric acid cleavage process requires the consumption of one molecule of ATP to activate citric acid. Based on this reaction principle, the inventors utilized an ADP-Glo assay kit to detect the amount of ATP converted to ADP in response to the catalytic activity of ACLY. After the establishment of the activity measurement system and optimization of the reaction conditions, the inventors evaluated the ACLY inhibitory activity of the obtained novel ACLY small molecule inhibitors.
Activity test protocol: Human-derived ACLY protein was purchased from Beijing Yiqiao Shenzhou Technology Co., Ltd (Item No. 11769-H07B), and ADP-Glo assay kit was purchased from Promega (Item No. V9102). The total volume of the reaction was 5 μL, which consisted of a mixture of three parts: 1 μL of 2% DMSO, 2 μL of the substrate mixture, and 2 μL of the enzyme (final concentration of 25 nM). Then 1 μL of different concentrations of compounds were added for incubation. Reaction conditions: 30 min, 37° C. Then 2.5 μL of ADP Reagent from ADP-Glo Kit was used, mixed well and reacted for 2 h. 5 μL of ADP Detection was added, centrifuged and mixed well. Then the full wavelength value was read from Envision multifunctional plate reader.
Results: Firstly, the cumulative amount of fluorescence intensity of the enzyme in 30 min reaction time (RFU/min) was calculated to represent the initial velocity of the enzyme, and then the ratio of the enzyme's velocity with the addition of compounds (vsample) to the enzyme's velocity without the addition of compounds (vDMSO) was calculated to be the percentage of activity for each concentration group of the samples (Activity rate %), with the formula: % Activity=(V(sample)/(v(DMSO))×100%. The logarithmic value of the concentration was plotted against the activity percentage, and then a non-linear regression was used to calculate the fitted curve. The software GraphPad Prism 8.0 (formula log (inhibitor) vs. response—Variable slope) was used to fit the curve and calculate the IC50 value, and the results are shown in the table below.

[2] = system: primary mouse hepatocytes; experiment: Inhibition of de novo lipid synthesis in primary hepatocytes, [1,2-14C]-sodium acetate tracer; assay type: cell-based; conditions: Hepatocyte, compound 12.5 μM, 4 h, [1,2-14C]-acetate, read-out: Lipid synthesis inhibition (%) (mean ± SD)
Procedure: Primary hepatic cell isolation and walling: the mouse liver was lavaged by calcium-free perfusate, then digested using collagenase and mouse primary hepatocytes were obtained by density gradient centrifugation, and were inoculated in 6-well plates at a density of 3×10^5/ml (0.2% gelatin was coated before inoculating). After inoculating, the cells were cultured and adhered for 6 h. The medium was changed to serum-free LG-DMEM (containing 2× double antibody) and starved the cells overnight.
Isotope tracing: the next day, the medium was switched to serum-free LG-DMEM containing 10 nM insulin and the corresponding concentration of compounds (1950 μL, 4 replicate wells per group); 0.1 μCi of [1,2-^14C]-acetate serum-free medium was added to each well, and the plates were then incubated for 4 h in the incubator.
Lipid saponification: Add 1.6 mL of ice PBS to each well for washing 3 times, shake the plate to dry and add 600 μL of 0.5 M KOH to each well to lysis for 1 h. Pipette 480 μL into a glass test tube with 400 μL of 20% KOH (methanol was used as solvent), shake and mix well, and then place it in a water bath at 95° C. to saponify for 3 h. The remaining lysate was used for the determination of the concentration of proteins. Add 400 μL of petroleum ether to each tube, pipette 5-6 times and centrifuge at 2500 rpm for 5 min, take 350 μL of the upper layer of the clear solution to the EP tube, and then add 400 μL of petroleum ether to repeat the extraction for 2 times (a total of 3 times). After complete transfer of the supernatant, 200 μL of water and 400 μL of 5N sulfuric acid were added to each tube for acidification, and the mixture was shaken and mixed. Add 400 μL of petroleum ether to each tube, pipette 5-6 times and centrifuge at 2500 rpm for 5 min, take 350 μL of the upper layer of the clear solution to the EP tube, then add 400 μL of petroleum ether and repeat the extraction for 2 times (a total of 3 times). Place in a fume hood and evaporate the petroleum ether overnight.
Isotope participation quantification: 1700 μL of scintillation solution was added to each tube and read.
Data processing and analysis: Firstly, the isotopic reference (R control, unit: CCPM/mg protein) of free fatty acids and cholesterol was calculated for the Control group of untreated mouse primary hepatocytes within 4 hours, which represented the basal synthesis. The percent inhibition of lipid synthesis was then calculated for each concentration group of the sample.

[3] = system: golden hamster; experiment: High-fat and high-cholesterol diet-induced hyperlipidemia model of golden hamster; assay type: in vivo; conditions: for serum LDL cholesterol / serum total cholesterol: 1 time/day, 7 days, vs control group
Description: Dosing regimen: The hyperlipidemia model of golden hamster is recognized as one of the ideal animal models for studying hyperlipidemia drug therapy (pharmacodynamic evaluation). In order to preliminarily investigate the existence of potential regulatory effects of the candidate compounds on hepatic lipid metabolism homeostasis, the high-fat and high-cholesterol diet-induced hyperlipidemia model of golden hamster was utilized for preliminary pharmacodynamic evaluation. The specific protocol was as follows. 56 golden hamsters, males, were modeled on high-fat and high-cholesterol diet (Research diet, item number C11953) for two weeks, and 8 golden hamsters were reserved as blank control group. Subsequently, group administration (7 groups, n=8) was performed, i.e., model control group, positive control ETC-1002 30 mg/kg group, compound A3 10 mg/kg and 30 mg/kg group, compound A4 10 mg/kg and 30 mg/kg group, and blank control group. The compounds in each group were configured with saline (0.9% NaCl) and administered at a frequency of 1 time/day for a 7-day dosing cycle.
Indicator test: The body weight and food intake of golden hamsters were closely monitored during the administration period. After 7 days of administration, blood was collected from the orbital region of each group (starved overnight for about 16 hours), centrifuged to obtain serum, and stored in cryopreservation, and then total cholesterol and LDL cholesterol were detected in the serum. The relative amount of the relevant indexes was calculated as follows: Relative amount (100%)=the amount in the administered group/the amount in the model control group*100%.

[4] = system: primary hepatocytes from WT mice; experiment: De novo lipid synthesis in WT primary hepatocytes, [14C]-citric acid tracer; assay type: cell-based; conditions: WT mouse hepatocytes, [14C]-citric acid substrate
[5] = system: ACLY knockdown primary hepatocytes; experiment: De novo lipid synthesis in ACLY knockdown primary hepatocytes, [14C]-citric acid tracer; assay type: cell-based, mouse; conditions: [14C]-citric acid substrate
Description: Test protocol: In order to further investigate the dependence of the inhibitory effect of the series of compounds on de novo lipid synthesis on ACLY, the inventors chose ACLY knockdown primary hepatocytes for further evaluation of de novo lipid synthesis, while compound ETC-1002 was used as a positive control. Specifically, the experimental protocol was as above, and 0.1 μCi/well [^14C]-citric acid was used for tracing.

[6] = Oral pharmacokinetics in ICR mice; assay type: in vivo, mouse; conditions: male, mouse, ICR mice, oral, 30 mg/kg, plasma
Procedure: Dosing regimen: 6 normal ICR mice, male, were divided into 2 groups (n=3), one group was orally given the positive control ETC-1002, and one group was orally given the tested compound A3, both administered at a dose of 30 mg/kg; blood was taken from the eye orbits at different time points before and after the administration of the drug, and the plasma drug concentration was detected.

[7] = golden hamster, during administration

## CC(C)(CCCC/C=C/CCCCC(C)(C)C(=O)O)C(=O)O [Compound A1]
[1]
  IC50: 42.3 ± 6.5 µM

## CC(C)(CCCC/C=C\CCCCC(C)(C)C(=O)O)C(=O)O [Compound A2]
[2]
  inhibition at 12.5 µM: 80.9 ± 5.9%
[1]
  IC50: 105 ± 7.1 µM

## CC(C)(CCCC/C=C\CCCCCC(C)(C)C(=O)O)C(=O)O [Compound A4]
[3]; 10 mg/kg
  serum LDL cholesterol: did not change significantly
  serum total cholesterol: did not change significantly
[3]; 30 mg/kg
  serum LDL cholesterol: significantly reduce
  serum total cholesterol: significantly reduce
[3]; [7]
  body weight: significant decrease
  food intake: significant decrease
  tolerance observation: intolerance phenomena such as slowed activity
[2]
  inhibition at 12.5 µM: 78.2 ± 4.3%
[1]
  IC50: 53.9 ± 13.8 µM

## CC(C)(CCCCC/C=C/CCCCCC(C)(C)C(=O)O)C(=O)O [Compound A5]
[2]
  inhibition at 12.5 µM: 56.6 ± 7.6%
[1]
  IC50: 16.7 ± 1.8 µM

## CC(C)(CCCCC/C=C\CCCCCC(C)(C)C(=O)O)C(=O)O [Compound A6]
[2]
  inhibition at 12.5 µM: 68.7 ± 20.9%
[1]
  IC50: 25.5 ± 6.8 µM

## CC(C)(CCCCC/C=C/CCCCCCC(C)(C)C(=O)O)C(=O)O [Compound A7]
[1]
  IC50: 12 ± 2.2 µM

## CC(C)(CCCCC/C=C\CCCCCCC(C)(C)C(=O)O)C(=O)O [Compound A8]
[2]
  inhibition at 12.5 µM: 21.6 ± 1.3%
[1]
  IC50: 21.3 ± 9.7 µM

## CC(C)(CCCCCC/C=C/CCCCCCC(C)(C)C(=O)O)C(=O)O [Compound A9]
[2]
  inhibition at 12.5 µM: 30.9 ± 4.2%
[1]
  IC50: 25.8 ± 9.2 µM

## CC(C)(CCCCCC/C=C\CCCCCCC(C)(C)C(=O)O)C(=O)O [Compound A10]
[2]
  inhibition at 12.5 µM: 21.1 ± 11.7%
[1]
  IC50: 9.6 ± 5.1 µM

## C/C(CCCCCC(C)(C)C(=O)O)=C(\C)CCCCC(C)(C)C(=O)O [Compound A11]
[1]
  IC50: 40.2 ± 2.9 µM

## CC(C)(CCCCCC1CC1CCCCC(C)(C)C(=O)O)C(=O)O (stereo not shown) [Compound A12]
[2]
  inhibition at 12.5 µM: 38.7 ± 11.4%
[1]
  IC50: 56.9 ± 4.7 µM

## CC(C)(CCCCCC(O)CCCCCC(C)(C)C(=O)O)C(=O)O [ETC-1002, Bempedoic acid, reference compound]
[4]; FIG. 1 A
  de novo synthesis of triglycerides: significantly inhibited
[4]; FIG. 1 B
  de novo synthesis of cholesterol: significantly inhibited
[2]
  inhibition at 12.5 µM: 46.3 ± 15.3%
[5]
  inhibitory effect on de novo synthesis of cholesterol: significantly attenuated or even the inhibitory effect was not manifested
  inhibitory effect on de novo synthesis of triglycerides: significantly attenuated or even the inhibitory effect was not manifested
[6]
  AUC(0-inf): 15600 ng·h/mL
  AUC(0-t): 14400 ng·h/mL
  Cmax: 3810 ng/mL
  Tmax: 0.25 h
  half-life: 4.45 h
[6]; read-out: MRT0-∞
  MRT inf: 6.81 h
